Each structure is given as a SMILES string.

Assay [1] relates to α1-adrenoceptor. More on the design: method as in PMID 30626882. The note with it: no test in this paper; α1 antagonism attributed; cited from earlier work.
Assay [2] concerns right ventricle of PAH rats. Nature of the assay: Right ventricle mtDNA copy number, radical scavenging, lipid peroxidation and ATP. The following applies: ~6 mg·kg^−1·day^−1 i.p. minipump, 28 days.

For the compound `Cc1c(C)c2c(c(C)c1O)CC[C@](C)(C(=O)N1CCNCC1)O2` [SUL-150, (R)-(6-hydroxy-2,5,7,8-tetramethylchroman-2-yl)(piperazin-1-yl)methanone], the “pA2 as an α1-adrenoceptor antagonist” value in assay [1] is “≈ 5.4”. In assay [2], the “ATP level of the right ventricle” value was determined as 272.2 ± 26.6 pmol/mg. In addition, in assay [2] (result in words), the “endogenous radical scavenging activity in right ventricle” value is recorded as “maintained” and the “lipid peroxidation level in right ventricle” value was “decreased lipid peroxidation level to those of sham rats”.

These data come from paper PMC12346692, “SUL-150 Limits Vascular Remodeling and Ventricular Failure in Pulmonary Arterial Hypertension” (International Journal of Molecular Sciences, 2025).
